From PMC3714011 (Journal of medicinal chemistry, 2013)

Key:
[1] = system: iMet processing of 14-3-3γ in HUVEC; conditions: for signal of unprocessed 14-3-3γ in the presence of cycloheximide: HUVEC treated with cycloheximide prior to MetAP inhibitor
[2] = Solubility observed at highest doses tested in the proliferation assay; conditions: 90 μM for 2, 40 μM for 3 and 40 μM for 4
[3] = patients with advanced cancer; cited from earlier work
HsMetAP1 [4] = target: T1, HsMetAP1 (Homo sapiens, UniProt P53582); assay: ProIP-coupled MetAP activity assay, HsMetAP1 with Co; assay type: biochemical
[5] = system: initiator methionine of TXNL1 in HEK293T cells; assay: Initiator methionine release assay, TXNL1-3×Flag in HEK293T cells; assay type: cell-based, human; conditions: 10 μM
[6] = system: initiator methionine of BTF3L4 in HEK293T cells; assay: Initiator methionine release assay, BTF3L4-3×Flag in HEK293T cells; assay type: cell-based, human; conditions: 10 μM 11j, 100 nM TNP-470
HsMetAP2 = HsMetAP2 (Homo sapiens, UniProt P50579); assay: ProIP-coupled MetAP activity assay, HsMetAP2 with Mn; assay type: biochemical
HsMetAP2, sequence (P50579 whole entry): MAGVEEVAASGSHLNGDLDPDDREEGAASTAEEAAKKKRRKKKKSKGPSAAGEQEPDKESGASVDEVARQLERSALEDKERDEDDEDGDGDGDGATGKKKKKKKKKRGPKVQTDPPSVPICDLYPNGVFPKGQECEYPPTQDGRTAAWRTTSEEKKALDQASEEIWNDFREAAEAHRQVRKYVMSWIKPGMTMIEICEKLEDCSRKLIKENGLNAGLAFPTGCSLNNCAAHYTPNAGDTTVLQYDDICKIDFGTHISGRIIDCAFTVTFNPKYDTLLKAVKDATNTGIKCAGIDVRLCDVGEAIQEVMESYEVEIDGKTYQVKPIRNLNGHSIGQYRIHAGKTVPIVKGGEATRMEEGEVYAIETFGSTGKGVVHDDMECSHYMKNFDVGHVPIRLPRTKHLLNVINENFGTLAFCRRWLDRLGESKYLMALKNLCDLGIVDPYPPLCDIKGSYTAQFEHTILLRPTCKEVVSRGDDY

HDFa = assay: [3H]-thymidine incorporation assay, HDFa; assay type: cell-based; conditions: Homo sapiens, read-out: Inhibition of Cell Proliferation (EC50, μM) HDFa
[7] = system: Jurkat E6-1, HeLa, HEK293T, PC-3 and MCF-7; assay: iMet processing of 14-3-3γ by immunoblot in five neoplastic cell lines; assay type: cell-based, human; conditions: all five neoplastic cell lines, 100 nM, 24 hours
[8] = system: iMet processing of 14-3-3γ in HDFa cells; conditions: 3–250 μM, 24 hours
HsMetAP1 [9] = target: T1, HsMetAP1; assay: LAO and HRP-coupled MetAP activity assay, HsMetAP1 with Zn; assay type: biochemical; conditions: concentrations up to 250 μM, Figure S3E
Escherichia coli = conditions: at concentrations up to 1 mM; ref 46b; cited from earlier work

Cc1nc(-c2ccc(Cl)cn2)nc(NC[C@@H](NCCCCc2ccccc2)c2ccccc2)c1Cl [compound 3]
cytotoxicity ([1]; 10 μM, most cells floating after 24 hours): severe cytotoxicity | solubility at highest doses tested [2]: No solubility problems

CO[C@@H](C(=O)N[C@H]1CC[C@@H](OC(=O)C2CCCCC2)CNC1=O)[C@H](O)[C@@H](O)[C@H](O)/C=C/C(C)(C)C [LAF-389]
reason for termination of the clinical study [3]: cardiovascular toxicity

Cc1nc(-c2ccccn2)nc(NCCc2ccccc2)c1Cl [compound 2, 5-chloro-6-methyl-N-(2-phenylethyl)-2-pyridin-2-ylpyrimidine-4-amine]
increase in ratio when TNP-470 was supplemented ([1]; HUVEC treated with 30 μM compound 2 plus TNP-470): 3.5 fold

c1ccc(NCCNc2nc(-c3ccccn3)nc3ccccc23)cc1 [10b, N^1-Phenyl-N^2-[2-(pyridin-2-yl)quinazolin-4-yl]ethane-1,2-diamine]
inhibitory activity against HsMetAP1 in the presence of Mn(II) / absence of Co(II) (HsMetAP1 [4]; 10 μM Mn(II)): completely lost the inhibitory activity

c1ccc(CCNc2nc(-c3ccccn3)nc3ccccc23)cc1 [10a, N-Phenethyl-2-(pyridin-2-yl)quinazolin-4-amine]
IC50 (HsMetAP1 [4]): 24 µM | inhibitory activity against HsMetAP1 in the presence of Mn(II) / absence of Co(II) (HsMetAP1 [4]; 10 μM Mn(II)): could completely inhibit HsMetAP1

COc1ccc(N2CCN(c3nc(-c4ccccn4)nc4ccccc34)CC2)cc1 [11j, 4-[4-(4-Methoxyphenyl)piperazin-1-yl]-2-(pyridin-2-yl)quinazoline]
signal of unprocessed 14-3-3γ in the presence of cycloheximide [1]: none of the MetAP inhibitors could generate a detectable signal | level of unprocessed 14-3-3γ over time ([1]; HUVEC, 10 μM, 1–7 hours): increased in a time-dependent manner | increase of the release of [35S]-Met from TXNL1-3×Flag, more than the vehicle [5]: 40 ± 17% | iMet retention of BTF3L4-3×Flag [6]: no appreciable increase

Clc1nc(-c2ccccn2)nc2ccccc12 [7a, 4-Chloro-2-(pyridin-2-yl)quinazoline]
inhibitory activity against HsMetAP1 in the presence of Mn(II) / absence of Co(II) (HsMetAP1 [4]; 10 μM Mn(II)): completely lost the inhibitory activity

c1ccc(-c2nc(NCCc3c[nH]c4ccccc34)c3ccccc3n2)nc1 [10c, N-[2-(1H-indol-3-yl)ethyl]-2-(pyridin-2-yl)quinazolin-4-amine]
increase in potency against HsMetAP1 with Co(II) compared with 10a (HsMetAP1 [4]): 7.8 fold | EC50 (HsMetAP1 [4]; EC50 (μM) HsMetAP1 Co(II), Table 2, 10 μM Co(II), mean ± SD of at least three determinations): 0.12 ± 0.02 µM | EC50 (HsMetAP1 [4]; EC50 (μM) HsMetAP1 Mn(II), Table 2, 10 μM Mn(II), mean ± SD): 5.3 ± 0.7 µM | increase in potency against HsMetAP1 with Mn(II) compared with 10a (HsMetAP1 [4]; Mn(II)): 4.5 fold | EC50 (HsMetAP2): > 300 µM

CO[C@@H]1[C@H](OC(=O)NC(=O)CCl)CC[C@]2(CO2)[C@H]1[C@@]1(C)O[C@@H]1CC=C(C)C [TNP-470]
signal of unprocessed 14-3-3γ in the presence of cycloheximide [1]: none of the MetAP inhibitors could generate a detectable signal | iMet retention of BTF3L4-3×Flag [6]: no appreciable increase

c1ccc(-c2nc(N3CCOCC3)c3ccccc3n2)nc1 [compound 17]
increase in potency against HsMetAP1 with Co(II) compared with 10a (HsMetAP1 [4]): 19 fold

c1ccc(-c2ccccn2)nc1 [2,2′-Bipyridine, 2,2′-bipyridine]
ability to block the NME of 14-3-3γ in cells, lower than 11j ([1]; Figure 6B): at least 30 times | EC50 (HDFa): 10 to 30 µM | inhibition at 100 µM (HsMetAP1 [4]; read-out: inhibition of the activity of HsMetAP1 in the absence of Co(II)): ≤ 30%

Cc1nc(-c2ccccn2)nc(NCCNc2ccc(C(F)(F)F)cn2)c1Cl [compound 4]
solubility at highest doses tested [2]: No solubility problems

O=C(O)COc1ccc(N2CCN(c3nc(-c4ccccn4)nc4ccccc34)CC2)cc1 [11e, 2-(4-{4-[2-(Pyridin-2-yl)quinazolin-4-yl]piperazin-1-yl}phenoxy)acetic acid]
EC50 (HsMetAP1 [4]; EC50 (μM) HsMetAP1 Mn(II), Table 3, 10 μM Mn(II), mean ± SD): > 100 µM

CCCCCCCCCCCCCC(=O)O[C@H]1CC[C@H](NC(=O)[C@H](OC)[C@H](O)[C@@H](O)[C@H](O)/C=C/C(C)C)C(=O)NC1 [bengamide A]
increase in ratio of unprocessed versus total 14-3-3γ [7]: no more than 2.6 fold | signal of unprocessed 14-3-3γ in the presence of cycloheximide [1]: none of the MetAP inhibitors could generate a detectable signal | increase in ratio of unprocessed 14-3-3γ versus total 14-3-3γ ([1]; HUVEC, 24-hour treatment, 100 nM, Figure 2A): 8 fold | concentration of maximal response of accumulation of unprocessed 14-3-3γ ([1]; HUVEC, data not shown): around 10 nM

c1ccc2[nH]c(-c3cscn3)nc2c1 [Thiabendazole, 4-(1H-1,3-benzodiazol-2-yl)-1,3-thiazole]
effect on the NME of 14-3-3γ ([1]; HUVEC, 3–250 μM, 24 hours): did not affect | effect on the NME of 14-3-3γ [8]: did not affect | inhibition of HsMetAP1 in the absence of Co(II) (HsMetAP1 [9]): failed to inhibit | activity against the growth of Escherichia coli (Escherichia coli): inactive
